Reference: patent US9212204B2, “Treatment of rett syndrome using glycyl-L-2-methylprolyl-L-glutamic acid” (priority 2011, dated 2015)
Non-standard residues stand in square brackets, D forms with d. Residues, ends and D or L forms follow the SMILES beside them. αMeP = C[C@@]1(C(=O)O)CCCN1

Key:
[1] = tested on: ChAT-positive neurons in the striatum of 18-month old rats; assay: ChAT immunohistochemistry in striatum of aging rats; assay type: in vivo, rat; details: single s.c. dose 0.012-12 mg/kg, 3 days after treatment
Method: In this experiment, we tested the effects of G-2-MePE on the number of ChAT-positive neurons in brains of 18-month old rats.
Eighteen-month old male rats received one of five treatments. A control group was treated with vehicle (saline alone (n=4) and four groups were treated with a single dose of G-2-MePE. Doses of 0.012 (n=4), 0.12 (n=5), 1.2 (ln=5) and 12 mg/kg (n=3), respectively, were given sub-cutaneously. Rats were sacrificed with an overdose of pentobarbital 3 days after drug treatment. Brains were perfused with normal saline and 4% paraformaldehyde and fixed in perfusion fixative overnight. Brains were stored in 25% sucrose in 0.1M PBS (pH7.4) until the tissue sank. Frozen coronal sections of striatum were cut with a microtome and stored in 0.1% sodium azide in 0.1M PBS at 4° C. Immunoreactivity for choline acetyltransferase (ChAT) was established by staining using a free floating section method. Briefly, antibodies were diluted in 1% goat serum. The sections were incubated in 0.2% triton in 0.1M PBS/Triton™ at 4° C. overnight before Immunohistochemical staining. The sections were pre-treated with 1% H2O2 in 50% methanol for 20 min. […]
The size of the striatal region used for the count was measured using an image analyser. […]
Data were analysed using a paired t-test and presented as mean+/−SEM.

[2] = tested on: hippocampal slices of heterozygous Shank3-deficient mice; assay: Shank3-deficient mouse model, hippocampal slice electrophysiology; assay type: in vivo; details: 15 or 60 mg/kg oral b.i.d. for 14 days
Method: 1 to 3 month old wild type and heterozygous Shank3-deficient mice are divided into 4 treatment groups: placebo treated wild-type, placebo treated Shank3-deficient group and two Shank3-deficient G-2-MePE treated groups. The animals are given placebo (water) or G-2-MePE formulated in water administered orally, b.i.d for 14 days. G-2-MePE is administered at two doses: 15 or 60 mg/kg.
Post-mortem, acute hippocampal slices (350 μm) are prepared from mice using a tissue chopper. Slices are maintained and experiments are conducted at 32° C. Slices are perfused with Ringer's solution containing (in mM): NaCl, 125.0; KCl, 2.5; MgSO4, 1.3; NaH2PO4, 1.0; NaHCO3, 26.2; CaCl2, 2.5; glucose, 11.0. The Ringer's solution is bubbled with 95% O2/5% CO2, at 32° C., during extracellular recordings (electrode solution: 3 M NaCl). Slices are maintained for 1 hr prior to establishment of a baseline of field excitatory postsynaptic potentials (fEPSPs) recorded from stratum radiatum in area CA1, evoked by stimulation of the Schaffer collateral-commissural afferents (100 μs pulses every 30 s) with bipolar tungsten electrodes placed into area CA3. Test stimulus intensity is adjusted to obtain fEPSPs with amplitudes that are one-half of the maximal response. The EPSP initial slope (mV/ms) is determined from the average waveform of four consecutive responses. Input-output (I/O) curves are generated by plotting the fEPSP slope versus fiber volley amplitude in low-Mg^2+ (0.1 mM) solution. AMPA receptor-mediated and NMDA receptor-mediated I/O relationships are measured in the presence of ionotropic glutamate receptor antagonists: […] APV (50 μM) and 6-cyano-7-nitroquinoxaline-2,3-dione CNQX (100 μM). Paired-pulse responses are measured with interstimulus intervals of 10 to 200 ms, and are expressed as the ratio of the average responses to the second stimulation pulse to the first stimulation pulse. […]

[3] = tested on: animals with penetrating ballistic injury; details: pTBI; cited from earlier work
[4] = vs placebo treated Shank3-deficient group

C[C@@]1(C(=O)N[C@@H](CCC(=O)O)C(=O)O)CCCN1C(=O)CN [Example G-2-MePE, Glycyl-L-2-methylprolyl-L-glutamic acid] (H-Gly-[αMeP]-Glu-OH)
number of ChAT-immunopositive neurons [1]: increased | AMPA receptor-mediated field potentials [2]: normalizes | average slope of I/O function [2, 4]: increase | hippocampal long-term potentiation (LTP) and its maintenance [2, 4]: increased | neuroinflammation [3]: inhibits
